Data published in patent publication US8785470B2, “Heterocyclic compounds and uses thereof” (Infinity Pharmaceuticals, Inc., priority 2011, dated 2014).
Read-outs that look alike come from different tables or passages of the source.

Tests used:
PI3Kγ = target: T1, PI3Kγ (Homo sapiens, UniProt P48736); test: PI3-Kinase HTRF assay, PI3Kγ; format: biochemical; details: bins Greater than 10 μM and Greater than 1 μM to 10 μM; 10 μM ATP, PIP2 at 10 μM
T1 construct: purchased Millipore Corporation 14-558-K
T1 sequence (P48736 whole entry): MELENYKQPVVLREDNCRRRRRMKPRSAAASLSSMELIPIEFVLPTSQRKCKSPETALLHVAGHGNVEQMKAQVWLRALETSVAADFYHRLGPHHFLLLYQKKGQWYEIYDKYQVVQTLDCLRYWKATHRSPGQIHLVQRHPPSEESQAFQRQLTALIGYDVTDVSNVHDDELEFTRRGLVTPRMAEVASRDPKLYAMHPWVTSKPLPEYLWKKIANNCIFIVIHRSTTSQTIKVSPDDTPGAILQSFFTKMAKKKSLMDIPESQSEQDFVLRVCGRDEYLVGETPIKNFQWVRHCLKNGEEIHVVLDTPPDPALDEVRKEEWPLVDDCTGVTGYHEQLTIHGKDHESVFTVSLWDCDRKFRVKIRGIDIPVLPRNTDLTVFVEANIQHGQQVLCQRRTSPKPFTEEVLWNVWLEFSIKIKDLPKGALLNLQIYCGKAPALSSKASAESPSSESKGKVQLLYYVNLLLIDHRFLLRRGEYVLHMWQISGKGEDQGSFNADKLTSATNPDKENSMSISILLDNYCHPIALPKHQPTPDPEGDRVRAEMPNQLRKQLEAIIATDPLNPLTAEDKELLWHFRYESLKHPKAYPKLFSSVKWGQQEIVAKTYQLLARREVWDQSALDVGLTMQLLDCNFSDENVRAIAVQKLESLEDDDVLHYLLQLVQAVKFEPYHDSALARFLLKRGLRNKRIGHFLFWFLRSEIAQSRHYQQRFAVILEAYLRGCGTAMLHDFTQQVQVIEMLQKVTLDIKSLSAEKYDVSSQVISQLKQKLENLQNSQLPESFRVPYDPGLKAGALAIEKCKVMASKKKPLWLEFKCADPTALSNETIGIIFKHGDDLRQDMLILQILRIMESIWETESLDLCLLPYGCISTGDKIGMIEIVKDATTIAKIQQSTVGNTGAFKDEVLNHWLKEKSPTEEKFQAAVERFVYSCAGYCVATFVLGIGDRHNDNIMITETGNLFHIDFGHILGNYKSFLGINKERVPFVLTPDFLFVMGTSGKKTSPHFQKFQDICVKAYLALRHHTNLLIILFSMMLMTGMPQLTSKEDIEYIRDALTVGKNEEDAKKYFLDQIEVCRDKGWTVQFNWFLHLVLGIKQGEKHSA
Excerpt: (§1) A PI3-Kinase HTRF® assay kit (cat No. 33-016) purchased from Millipore Corporation was used to screen compounds provided herein. This assay used specific, high affinity binding of the GRPI pleckstrin homology (PH) domain to PIP3, the product of a Class 1A or 1B PI3 Kinase acting on its physiological substrate PIP2. During the detection phase of the assay, a complex was generated between the GST-tagged PH domain and biotinylated short chain PIP3. The biotinylated PIP3 and the GST-tagged PH domain recruited fluorophores (Streptavidin-Allophycocyanin and Europium-labeled anti-GST respectively) to form the fluorescence resonance energy transfer (FRET) architecture, generating a stable time-resolved FRET signal. The FRET complex was disrupted in a competitive manner by non-biotinylated PIP3, a product formed in the PI3 Kinase assay.
(§2) PI3 Kinase α, β, γ and δ activity was assayed using the PI3 Kinase HTRF® assay kit (catalogue No. 33-016) purchased from Millipore Corporation. Purified recombinant PI3Kα (catalogue No. 14-602-K), PI3Kβ (catalogue No. 14-603-K), PI3Kγ (catalogue No. 14-558-K) and PI3Kδ (catalogue No. 14-604-K) were obtained from Millipore Corporation. Purified recombinant PI3K enzyme was used to catalyze the phosphorylation of phosphatidylinositol 4,5-bisphosphate (PIP2 at 10 μM) to phosphatidylinositol 3,4,5-trisphosphate (PIP3) in the presence of 10 μM ATP. The assay was carried out in 384-well format and detected using a Perkin Elmer EnVision Xcite Multilabel Reader. Emission ratios were converted into percent inhibitions and imported into GraphPad Prism software. The concentration necessary to achieve inhibition of enzyme activity by 50% (IC50) was calculated using concentrations ranging from 20 μM to 0.1 nM (12-point curve). IC50 values were determined using a nonlinear regression model available in GraphPad Prism 5. […]

Balb/c splenic B cells = test: B cell activation and proliferation assay; format: cell-based; details: Mus musculus, Greater than 1 μM to 10 μM, read-out: B cell proliferation EC50
In short: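 Read-out is metabolic activity by Alamar Blue reduction (5 h, 560Ex/590Em) after 72 h at 37° C, reported as IC50 or EC50. Compound (0.2% DMSO) was added 30 min before a cocktail holding 10 μg/ml LPS or 5 μg/ml F(ab′)2 anti-IgM with 2 ng/ml mouse IL4. Cells were purified Balb/c splenic B cells, 50.000 per well.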

PI3Kδ = target: T2, PI3Kδ (Homo sapiens, UniProt O00329); test: PI3-Kinase HTRF assay, PI3Kδ; format: biochemical; details: bins Greater than 10 μM and Greater than 1 μM to 10 μM; 10 μM ATP, PIP2 at 10 μM
T2 construct: purchased Millipore Corporation 14-604-K
T2 sequence (O00329 whole entry): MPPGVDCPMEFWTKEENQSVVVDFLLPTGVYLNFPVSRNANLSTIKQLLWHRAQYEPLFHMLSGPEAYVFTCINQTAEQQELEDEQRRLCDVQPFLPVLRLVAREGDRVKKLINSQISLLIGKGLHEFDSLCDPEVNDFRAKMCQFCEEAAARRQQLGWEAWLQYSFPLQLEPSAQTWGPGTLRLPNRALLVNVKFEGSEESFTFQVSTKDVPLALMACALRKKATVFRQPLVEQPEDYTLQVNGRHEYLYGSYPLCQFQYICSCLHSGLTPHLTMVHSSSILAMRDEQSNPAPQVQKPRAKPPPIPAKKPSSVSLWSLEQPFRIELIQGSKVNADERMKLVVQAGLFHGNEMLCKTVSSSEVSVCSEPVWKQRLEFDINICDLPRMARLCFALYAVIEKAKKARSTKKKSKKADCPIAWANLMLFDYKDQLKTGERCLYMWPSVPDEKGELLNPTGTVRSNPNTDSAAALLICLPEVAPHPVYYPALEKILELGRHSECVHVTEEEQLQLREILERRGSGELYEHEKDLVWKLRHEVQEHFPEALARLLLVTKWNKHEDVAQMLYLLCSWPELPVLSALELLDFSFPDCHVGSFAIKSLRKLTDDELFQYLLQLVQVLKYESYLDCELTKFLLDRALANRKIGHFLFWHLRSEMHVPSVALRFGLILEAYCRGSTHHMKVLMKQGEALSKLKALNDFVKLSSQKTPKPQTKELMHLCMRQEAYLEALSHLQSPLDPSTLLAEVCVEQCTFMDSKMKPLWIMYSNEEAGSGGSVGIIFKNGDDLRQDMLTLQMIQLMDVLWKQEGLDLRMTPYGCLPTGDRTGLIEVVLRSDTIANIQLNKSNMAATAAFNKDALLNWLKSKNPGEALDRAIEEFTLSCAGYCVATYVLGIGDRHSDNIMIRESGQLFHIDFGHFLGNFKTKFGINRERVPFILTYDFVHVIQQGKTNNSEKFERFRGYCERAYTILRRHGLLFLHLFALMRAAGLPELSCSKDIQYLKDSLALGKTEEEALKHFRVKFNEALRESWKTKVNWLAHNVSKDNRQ
T2 sequence (P27986 whole entry partner): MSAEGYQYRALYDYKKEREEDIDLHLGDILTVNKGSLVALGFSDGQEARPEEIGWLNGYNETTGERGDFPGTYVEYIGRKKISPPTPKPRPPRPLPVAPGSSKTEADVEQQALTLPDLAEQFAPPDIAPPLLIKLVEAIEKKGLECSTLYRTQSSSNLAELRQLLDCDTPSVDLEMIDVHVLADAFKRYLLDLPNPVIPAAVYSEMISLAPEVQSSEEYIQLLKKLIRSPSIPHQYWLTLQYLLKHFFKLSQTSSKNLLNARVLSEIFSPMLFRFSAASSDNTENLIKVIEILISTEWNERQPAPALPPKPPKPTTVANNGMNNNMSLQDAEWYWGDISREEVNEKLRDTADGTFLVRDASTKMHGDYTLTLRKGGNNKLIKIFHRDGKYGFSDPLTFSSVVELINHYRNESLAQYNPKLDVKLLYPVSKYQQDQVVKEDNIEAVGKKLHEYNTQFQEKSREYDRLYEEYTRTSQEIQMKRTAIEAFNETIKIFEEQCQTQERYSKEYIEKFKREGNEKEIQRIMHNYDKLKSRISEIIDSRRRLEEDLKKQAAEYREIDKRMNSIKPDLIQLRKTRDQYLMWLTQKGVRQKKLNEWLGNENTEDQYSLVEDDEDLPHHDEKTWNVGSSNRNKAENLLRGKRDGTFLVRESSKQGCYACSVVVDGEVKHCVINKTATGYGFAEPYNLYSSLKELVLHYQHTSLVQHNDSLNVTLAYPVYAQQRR
Excerpt: as §1, §2

[1] = system: phospho-AKT in RAW 264.7 cells (PI3Kγ); test: PI3Kγ selective assay, phospho-AKT in RAW 264.7 cells; format: cell-based; details: Mus musculus, RAW264.7, stimulated with C5a, read-out: IC50 for phospho-AKT, RAW 264.7 cell model
Excerpt: A compound's ability in selectively inhibiting PI3Kγ can be assessed using RAW264.7 macrophages. Briefly, serum-starved PAW264.7 cells are stimulated with a known GPCR agonist C5a. (See, e.g., Camps et al., Nature Medicine (2005) 11(9): 936-943). Cells can be treated with test compounds prior to, simultaneously with, or subsequent to the stimulation by C5a. RAW 264.7 cells respond to the complement component fragment C5a through activation of the C5a receptor, and the C5a receptor activates macrophages and induces cell migration. Test compounds' ability to inhibit C5a-mediated AKT phosphorylation is indicative of selective inhibition of PI3Kγ. Thus, by monitoring the reduction of phospho-AKT in stimulated RAW 264.7 cells (using for example, phospho-AKT antibodies), a compound's potential efficacy in selectively inhibiting PI3Kγ can be assessed.

PI3Kβ = target: T3, PI3Kβ (Homo sapiens, UniProt P42338); test: PI3-Kinase HTRF assay, PI3Kβ; format: biochemical; details: bins Greater than 10 μM and Greater than 1 μM to 10 μM; 10 μM ATP, PIP2 at 10 μM
T3 construct: purchased Millipore Corporation 14-603-K
T3 sequence (P42338 whole entry): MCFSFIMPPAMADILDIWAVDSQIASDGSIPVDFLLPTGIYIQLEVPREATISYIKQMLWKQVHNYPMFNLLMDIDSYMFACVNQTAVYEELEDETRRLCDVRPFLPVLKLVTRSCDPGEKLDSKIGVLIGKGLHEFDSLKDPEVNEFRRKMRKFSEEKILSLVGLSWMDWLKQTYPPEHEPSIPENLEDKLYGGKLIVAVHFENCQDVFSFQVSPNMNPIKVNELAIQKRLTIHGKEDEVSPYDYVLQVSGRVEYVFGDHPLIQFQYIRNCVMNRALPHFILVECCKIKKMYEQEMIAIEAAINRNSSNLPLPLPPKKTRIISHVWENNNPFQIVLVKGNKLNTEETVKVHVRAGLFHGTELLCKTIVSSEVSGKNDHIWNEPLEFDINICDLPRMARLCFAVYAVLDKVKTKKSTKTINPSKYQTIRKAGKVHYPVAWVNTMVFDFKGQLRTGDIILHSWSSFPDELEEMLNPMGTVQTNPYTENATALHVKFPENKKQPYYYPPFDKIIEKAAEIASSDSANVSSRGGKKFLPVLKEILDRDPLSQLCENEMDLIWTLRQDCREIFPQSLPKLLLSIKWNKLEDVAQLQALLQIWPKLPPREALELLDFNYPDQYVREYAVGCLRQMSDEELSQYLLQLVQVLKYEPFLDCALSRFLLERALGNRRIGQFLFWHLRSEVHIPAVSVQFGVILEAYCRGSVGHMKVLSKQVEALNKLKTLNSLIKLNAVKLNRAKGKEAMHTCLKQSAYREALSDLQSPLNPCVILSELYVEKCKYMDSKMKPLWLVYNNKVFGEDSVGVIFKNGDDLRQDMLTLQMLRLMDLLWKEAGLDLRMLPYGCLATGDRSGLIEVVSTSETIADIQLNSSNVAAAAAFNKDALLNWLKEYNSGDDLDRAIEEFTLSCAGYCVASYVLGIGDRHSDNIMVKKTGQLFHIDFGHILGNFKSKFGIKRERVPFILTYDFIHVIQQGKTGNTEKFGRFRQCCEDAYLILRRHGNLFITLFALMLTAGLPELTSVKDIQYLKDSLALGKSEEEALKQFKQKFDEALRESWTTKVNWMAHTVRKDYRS
T3 sequence (P27986 whole entry partner): as the sequence (P27986 whole entry partner) above
In short: (§3)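 Competitive time-resolved FRET readout of PIP3 formed from 10 μM PIP2 with 10 μM ATP, 1 h at room temperature, by each recombinant human isoform (α, β, γ, δ; 0.25-0.3 μg/ml). Compound (2% DMSO final) was preincubated 15 min with enzyme and substrate; IC50 fitted over 20 μM–0.1 nM, 12 points.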

[2] = system: phospho-AKT in RAJI cells (PI3Kδ); test: PI3Kδ selective assay, phospho-AKT in RAJI cells; format: cell-based; details: RAJI cells stimulated with anti-human IgM; read-out: IC50 for phospho-AKT, RAJI cell model
Excerpt: A compound's ability in selectively inhibiting PI3Kδ can be assessed using RAJI cells, i.e., B lymphocyte cells derived from lymphoma patients. Briefly, serum-starved RAJI cells are stimulated with anti-human IgM, thereby causing signaling through the B-cell receptors, as described in, for example, He et al., Leukemia Research (2009) 33: 798-802. B-cell receptor signaling is important for the activation, differentiation, and survival of B cells and certain B-cell derived cancers. Reduction of phospho-AKT is indicative of compounds that may inhibit B-cell proliferation and function in certain diseases. By monitoring the reduction of phospho-AKT in stimulated RAJI cells (using for example, phospho-AKT antibodies), a compound's potential efficacy in selectively inhibiting PI3Kδ can be assessed.

PI3Kα = target: T4, PI3Kα (Homo sapiens, UniProt P42336); test: PI3-Kinase HTRF assay, PI3Kα; format: biochemical; details: bins Greater than 10 μM and Greater than 1 μM to 10 μM; 10 μM ATP, PIP2 at 10 μM; read-out: IC50 P13Kα
T4 construct: purchased Millipore Corporation 14-602-K
T4 sequence (P42336 whole entry): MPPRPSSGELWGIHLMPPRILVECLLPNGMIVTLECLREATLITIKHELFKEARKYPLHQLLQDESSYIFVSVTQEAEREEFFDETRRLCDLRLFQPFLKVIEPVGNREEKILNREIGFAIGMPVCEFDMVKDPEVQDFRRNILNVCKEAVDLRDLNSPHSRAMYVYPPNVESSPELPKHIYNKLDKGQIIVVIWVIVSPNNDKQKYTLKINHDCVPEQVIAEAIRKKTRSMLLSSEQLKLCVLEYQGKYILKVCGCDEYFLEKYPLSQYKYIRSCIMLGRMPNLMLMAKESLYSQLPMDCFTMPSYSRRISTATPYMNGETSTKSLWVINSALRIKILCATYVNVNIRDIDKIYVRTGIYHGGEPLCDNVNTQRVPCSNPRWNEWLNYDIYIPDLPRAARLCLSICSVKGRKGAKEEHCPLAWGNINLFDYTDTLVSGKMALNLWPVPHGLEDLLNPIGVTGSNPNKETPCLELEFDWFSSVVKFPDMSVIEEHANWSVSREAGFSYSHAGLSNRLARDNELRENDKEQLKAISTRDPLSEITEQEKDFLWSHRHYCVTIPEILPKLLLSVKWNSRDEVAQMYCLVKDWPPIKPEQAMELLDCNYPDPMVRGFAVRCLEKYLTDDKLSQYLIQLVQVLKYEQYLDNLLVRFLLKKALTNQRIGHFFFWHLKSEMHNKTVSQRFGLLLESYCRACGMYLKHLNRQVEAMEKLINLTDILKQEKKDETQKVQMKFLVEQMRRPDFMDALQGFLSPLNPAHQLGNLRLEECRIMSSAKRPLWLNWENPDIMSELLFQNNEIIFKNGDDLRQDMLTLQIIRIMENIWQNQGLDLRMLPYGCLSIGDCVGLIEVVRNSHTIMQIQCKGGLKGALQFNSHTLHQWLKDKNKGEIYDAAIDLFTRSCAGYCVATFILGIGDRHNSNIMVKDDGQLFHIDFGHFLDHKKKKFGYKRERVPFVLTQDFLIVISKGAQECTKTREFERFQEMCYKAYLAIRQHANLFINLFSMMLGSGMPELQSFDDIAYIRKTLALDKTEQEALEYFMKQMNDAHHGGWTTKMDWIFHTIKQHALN
T4 sequence (P27986 whole entry partner): as the sequence (P27986 whole entry partner) above
In short: as §3

[3] = ranges less than 100 nM and between 100 nM and 1 μM (given as 100-1000)

Row | SMILES | IC50 (PI3Kγ) | IC50 (PI3Kδ) | IC50 [1, 3] | IC50 (PI3Kβ) | IC50 [2] | IC50 ([1]; range between 1 μM and 10 μM) | IC50 (PI3Kα) | EC50 (Balb/c splenic B cells)
1 | C[C@H](Nc1cc(N)ncn1)c1cc2cccc(Cl)c2c(=O)n1-c1ccccc1 [Compound 78, (S)-3-(1-(6-aminopyrimidin-4-ylamino)ethyl)-8-chloro-2-phenylisoquinolin-1(2H)-one] | 1000 to 10000 nM |  |  |  |  |  |  | 
2 | C[C@H](Nc1nc(N)ncc1C#N)c1cc2cccc(Cl)c2c(=O)n1C1CC1 [Compound 104] |  | 1000 to 10000 nM | 100 to 1000 nM | 1000 to 10000 nM | < 100 nM |  |  | 
3 | COc1cc(-c2cccc3cc([C@H](C)Nc4nc(N)ncc4C(=O)N4CCC4)n(-c4ccccc4)c(=O)c23)ccn1 [Compound 154] |  | 1000 to 10000 nM |  |  |  |  |  | 
4 | CCN(C)C(=O)c1cnc(N)nc1N[C@@H](C)c1cc2cccc(-c3ccnc(OC)c3)c2c(=O)n1-c1ccccc1 [Compound 155] |  | 1000 to 10000 nM |  |  |  |  |  | 
5 | CC(C)n1c([C@H](C)Nc2ncnc(N)c2C#N)cc2cccc(Cl)c2c1=O [Compound 329] |  |  | 100 to 1000 nM | 1000 to 10000 nM | < 100 nM |  | 1000 to 10000 nM | 
6 | CCOc1nc(-c2cnc(N)nc2N[C@@H](C)c2cc3cccc(-c4cnc(OC)nc4)c3c(=O)n2-c2ccccc2)cs1 [Compound 396] |  |  | 100 to 1000 nM | 1000 to 10000 nM | < 100 nM |  | 1000 to 10000 nM | 
7 | C[C@H](Nc1nc(N)ncc1-c1cccc(S(C)(=O)=O)c1)c1cc2cccc(Cl)c2c(=O)n1-c1ccccc1 [Compound 397] |  |  | < 100 nM | 1000 to 10000 nM | < 100 nM |  | 1000 to 10000 nM | 
8 | C[C@H](Nc1nc(N)ncc1-c1cccc(NS(C)(=O)=O)c1)c1cc2cccc(Cl)c2c(=O)n1-c1ccccc1 [Compound 399] |  |  | < 100 nM | 1000 to 10000 nM | < 100 nM |  | 1000 to 10000 nM | 
9 | C[C@H](Nc1nc(N)ncc1-c1cccc(N(C)S(C)(=O)=O)c1)c1cc2cccc(Cl)c2c(=O)n1-c1ccccc1 [Compound 408] |  |  | < 100 nM | 1000 to 10000 nM | < 100 nM |  | 1000 to 10000 nM | 
10 | Cc1ccc(NS(C)(=O)=O)cc1-c1cnc(N)nc1N[C@@H](C)c1cc2cccc(Cl)c2c(=O)n1-c1ccccc1 [Compound 412] |  |  | < 100 nM | 1000 to 10000 nM | < 100 nM |  |  | 
11 | C[C@H](Nc1nc(N)ncc1-c1cccc(S(=O)(=O)C2CC2)c1)c1cc2cccc(Cl)c2c(=O)n1-c1ccccc1 [Compound 417] |  |  | < 100 nM | 1000 to 10000 nM | < 100 nM |  | 1000 to 10000 nM | 
12 | C[C@H](Nc1nc(N)ncc1-c1cccc(S(C)(=O)=O)c1)c1cc2cccc(C(F)(F)F)c2c(=O)n1-c1ccccc1 [Compound 428] |  |  | < 100 nM | 1000 to 10000 nM | < 100 nM |  | 1000 to 10000 nM | 

Second part, led by results:

Row | IC50 (PI3Kγ) | IC50 (PI3Kδ) | IC50 [1, 3] | IC50 (PI3Kβ) | IC50 [2] | IC50 ([1]; range between 1 μM and 10 μM) | IC50 (PI3Kα) | SMILES | EC50 (Balb/c splenic B cells)
13 | 1000 to 10000 nM |  |  |  |  |  |  | C[C@H](Nc1nc(Cl)ncc1[N+](=O)[O-])c1cc2cccc(Cl)c2c(=O)n1-c1ccccc1 [Compound 75, (S)-8-chloro-3-(1-(2-chloro-5-nitropyrimidin-4-ylamino)ethyl)-2-phenylisoquinolin-1(2H)-one] | 
14 |  | 1000 to 10000 nM |  |  |  |  |  | C[C@H](Nc1nc(N)ncc1-c1ccccc1)c1cc2cccc(Cl)c2c(=O)n1-c1ccccc1 [Compound 82, (S)-3-(1-(2-amino-5-phenylpyrimidin-4-ylamino)ethyl)-8-chloro-2-phenylisoquinolin-1(2H)-one] | 1000 to 10000 nM
15 |  | 1000 to 10000 nM |  |  |  |  |  | C[C@H](Nc1nc(N)ncc1S(C)(=O)=O)c1cc2cccc(Cl)c2c(=O)n1-c1ccccc1 [Compound 85, (S)-3-(1-(2-amino-5-(methylsulfonyl)pyrimidin-4-ylamino)ethyl)-8-chloro-2-phenylisoquinolin-1(2H)-one] | 
16 |  | 1000 to 10000 nM |  |  |  |  |  | COc1cccc2cc([C@H](C)Nc3nc(N)ncc3C#N)n(-c3ccccc3)c(=O)c12 [Compound 148] | 
17 |  | 1000 to 10000 nM |  | 1000 to 10000 nM | < 100 nM | 1000 to 10000 nM | 1000 to 10000 nM | C[C@H](Nc1nc(N)ncc1C#N)c1cc2cccc(-c3cncc(NS(C)(=O)=O)c3)c2c(=O)n1-c1ccccc1 [Compound 191] | 
18 |  | 1000 to 10000 nM |  | 1000 to 10000 nM |  |  |  | C[C@H](Nc1nc(N)ncc1C#N)c1cc2cccc(Cl)c2c(=O)n1-c1ccc(C#N)cc1 [Compound 220] | 
19 |  | 1000 to 10000 nM |  |  |  |  |  | COc1cnc(-c2cccc3cc([C@H](C)Nc4nc(N)ncc4C#N)n(-c4ccccc4)c(=O)c23)nc1 [Compound 228] | 
20 |  |  | < 100 nM | 1000 to 10000 nM | < 100 nM |  | 1000 to 10000 nM | N#Cc1cnc(N)nc1NCc1cc2cccc(Cl)c2c(=O)n1-c1ccccc1 [Compound 241] | 
21 |  | 1000 to 10000 nM | < 100 nM | 1000 to 10000 nM | < 100 nM |  |  | C[C@H](Nc1nc(N)ncc1C#N)c1cc2cccc(Cl)c2c(=O)n1-c1ccc(F)c(F)c1 [Compound 270] | 
22 |  | 1000 to 10000 nM | < 100 nM | 1000 to 10000 nM | < 100 nM |  |  | C[C@H](Nc1nc(N)ncc1C#N)c1cc2cccc(Cl)c2c(=O)n1-c1c(F)cccc1F [Compound 279] | 
23 |  | 1000 to 10000 nM | < 100 nM | 1000 to 10000 nM | < 100 nM |  |  | COc1cc(-n2c([C@H](C)Nc3nc(N)ncc3C#N)cc3cccc(Cl)c3c2=O)ccc1F [Compound 291] | 
24 |  | 1000 to 10000 nM |  | 1000 to 10000 nM | < 100 nM | 1000 to 10000 nM | 1000 to 10000 nM | C[C@H](Nc1nc(N)ncc1C#N)c1cc2cccc(-c3ccc(=O)n(C)c3)c2c(=O)n1-c1ccon1 [Compound 338] | 
25 |  | 1000 to 10000 nM | 100 to 1000 nM | 1000 to 10000 nM | < 100 nM |  | 1000 to 10000 nM | C[C@H](Nc1nc(N)ncc1-c1cncc(S(C)(=O)=O)c1)c1cc2cccc(Cl)c2c(=O)n1-c1ccccc1 [Compound 401] | 
26 |  | 1000 to 10000 nM |  | 1000 to 10000 nM | < 100 nM | 1000 to 10000 nM |  | C[C@H](Nc1nc(N)ncc1-c1ccc(S(C)(=O)=O)nc1)c1cc2cccc(Cl)c2c(=O)n1-c1ccccc1 [Compound 402] | 
27 |  |  | < 100 nM | 1000 to 10000 nM | < 100 nM |  |  | C[C@H](Nc1nc(N)ncc1-c1cnc(S(C)(=O)=O)s1)c1cc2cccc(Cl)c2c(=O)n1-c1ccccc1 [Compound 403] | 
28 |  | 1000 to 10000 nM |  |  |  |  |  | C[C@H](Nc1cc(Cl)ncc1C#N)c1cc2cccc(Cl)c2c(=O)n1-c1ccccc1 [Compound 429] | 
29 |  | 1000 to 10000 nM |  |  |  |  |  | C[C@H](Nc1nc(N)ncc1C(=O)N1CCC1)c1cc2cccc(Cl)c2c(=O)n1-c1ccccc1 [Compound 433] | 
